Source: US20190160035A1, “METHOD OF TREATMENT” (QBIOTICS LIMITED, priority 2016, published 2019)
“Also recorded” adds a separate entry of the source.

What was measured:
[1] = system: cutaneous Mast Cell Tumor (MCT); experiment: Example 2: dose de-escalation study (1.0, 0.5, 0.2 mg/mL; 0.5 mL per cm^3 tumor), RECIST v.1.1 tumor response; format: in vivo, dogs; details: for RECIST classification: Day 21, one value per dog
Protocol: A multi-site, unmasked, uncontrolled, non-randomized dosage characterization study in dogs was performed under field conditions using dose de-escalation.
Dogs were enrolled in the study as they presented to participating veterinary practices meeting the necessary eligibility criteria. As the study design was a dose de-escalation study, dogs were allocated to the highest dose initially (1.0 mg Compound 1 per mL). Each dose comprised a total cohort of 10 dogs participating across all clinics. Once the cohort of 10 dogs was treated at the highest dose, subsequent dogs were assigned to the 2nd cohort (0.5 mg Compound 1 per mL) and dosing continued through de-escalation until completion of 7 evaluable enrolments in the 3rd cohort (0.2 mg Compound 1 per mL).
Each Compound 1 preparation (1.0, 0.5, and 0.2 mg/mL) was pre-prepared in a 30% propylene glycol, 30 mM Acetate buffer pH 4.0 solution.
Compound 1 was administered to each dog at 0.5 mL per cm^3 of tumor volume as determined on the day of dosing. Digital calipers were used to measure tumor axes.
Wherever possible, the tumor and a 2 cm border surrounding the tumor was shaved prior to treatment. To deliver the drug formulation, the needle of the dosing syringe was inserted into the tumor at the injection point and moved in a radial manner in 2- and 3-dimensions with approximately 0.1 mL of formulation delivered to each 0.2 cm^3 of tumor mass. Study dogs were clinically examined at approximately 24 and 48 hours, 7, 14 and 21 days post-treatment.
Prophylactic and supportive medications considered for use in this study to prevent paraneoplastic MCT-induced adverse events such as Darier's sign and gastric upset included cetrizine, chlorpheniramine, omeprazole, acetylpromazine, methadone and meloxicam. Some supportive therapies were given up to 5 days post treatment (see Table 14). Additional approved supportive therapies (if required) included fentanyl (patch) or tramadol analgesia, or antibiotic (amoxicillin/clavulanic acid).
Determination of efficacy was based on objective tumor measurements made according to the RECIST v.1.1 guidelines (Eisenhauer et al., 2009) using unidirectional tumor measurements.
Pairwise comparison of categorical responses to treatment between treatment groups at each time point post-treatment were compared using Fisher's Exact Test. Using the RECIST classification (Eisenhauer et al., 2009), tumor data was analysed to determine the effectiveness of, and differences between, treatments. Generalised linear modeling was used to examine the combined effects of treatment dose, time post-treatment and other potentially explanatory variables. Generalised estimating equations with appropriate error structure (and controlled for repeated measurements of individuals) were used to examine categorical response to treatment and changes in tumor volume measurement. Tumor volume analysis was also controlled for pre-treatment tumor volume.
MCT measurements were recorded using digital calipers. Measurements were taken pre-treatment and at 7(±1), 14(±1) and 21(±2) days post treatment. The length (cm) was designated the longest measurable axis; the width (cm) was the tumor at the widest point perpendicular to the length; gentle manipulation of the MCT to measure the depth (cm) using the calipers was considered acceptable. Determination of efficacy was based on objective tumor measurements made according to the RECIST v.1.1 guideline using the longest unidirectional measurement (Eisenhauer et al. 2009) recorded at each timepoint. RECIST criteria were only applied to target lesions as Compound 1 is not intended as a systemic therapy. […] RECIST v.1.1 results are summarized below in Table 18.

[2] = system: cutaneous Mast Cell Tumor (MCT); experiment: Example 3: long term follow up of cohort 1 dogs for tumor recurrence; format: in vivo; as to Tumor recurrence at case follow-up post treatment: key: Nil=no tumor recurrence
Protocol: The dogs of cohort 1 in Example 2, treated with 1.0 mg Compound 1 per mL, were followed up post-treatment.
Dog GCV-209 was treated by surgical removal of residual tumor soon after study completion (Day 21).

[3] = system: soft tissue sarcoma (STS); experiment: Example 6: treatment of soft tissue sarcoma with intratumoral Compound 1, tumor response; format: in vivo, dogs; details: per dog, Compound 1 1.0 mg/mL intratumoral, first treatment
Excerpt: Dogs were selected for the study if they met the criteria in Table 1 (Example 1) but where the dog has at least one STS. Study dogs were managed with due regard for their welfare. All animals were client-owned, treated by Australian registered veterinarians, and cases managed under their direct supervision. An enrolled dog could be removed from the study prior to study completion under the following circumstances: • 1. If at any time during the study, in the opinion of the attending veterinarian, the dog's welfare is at risk due to non-response of the tumor to Compound 1 treatment or due to a serious adverse event, the veterinarian could elect to withdraw the dog from the study. Following withdrawal, the dog's attending veterinarian could then administer supportive treatment and veterinary care that they deem is appropriate and in the best interest of the animal. • 2. […]
• 1. […] The total calculated volume of the selected STS was confirmed as ≤12.5 cm3 (determined as ½×length (cm)×width (cm)×depth (cm)). • 5. The calculated dose of drug for the dog was confirmed as ≤0.25 mg Compound 1 per kg at the Day 0 visit (maximum dose of 5 mg Compound 1). • 6. The drug was provided to veterinarians as a 1 mg/mL Compound 1 formulation in ready to use form. • 7. […] Treated tumors were observed regularly and observations recorded at days 1, 7 (+2), 14 (+2) and 28 (+2) days post-treatment. • 10. […]

With `C/C=C(\C)C(=O)O[C@@H]1[C@@H](C)[C@@]2(O)[C@H]([C@@H]3C(C)(C)[C@]13OC(=O)[C@@H](C)CC)[C@@H]1O[C@]1(CO)[C@@H](O)[C@]1(O)C(=O)C(C)=C[C@H]12` [Compound 1, 12-tigloyl-13-(2-methylbutanoyl)-6,7-epoxy-4,5,9,12,13,20-hexahydroxy-1-tigliaen-3-one] the “Number of dogs with complete response (CR)” value (from here on “Number of dogs … (CR)”) ([1]; cohort 1, 1.0 mg/mL, 10 dogs) was 9, the RECIST classification ([1]; cohort 2, 0.5 mg Compound 1/mL) was “PR (partial response (PR, at least 30% decrease in the longest diameter of target lesion)); also recorded: PD (progressive disease (PD, greater than 20% increase in the target lesion))” and the “Number of dogs … (CR)” value ([1]; cohort 2, 0.5 mg/mL, 10 dogs) was 5. The “Number of dogs with partial response (PR)” value ([1]; cohort 2, 0.5 mg/mL, 10 dogs) was 1, the “Number of dogs with progressive disease (PD)” value ([1]; cohort 2, 0.5 mg/mL, 10 dogs) was 1 and the RECIST classification ([1]; cohort 3, 0.2 mg Compound 1/mL) was “PR (partial response (PR, at least 30% decrease in the longest diameter of target lesion))”. For the same molecule, the “Number of dogs showing efficacy (greater than a 70% reduction in tumor volume at 21 days)” value ([1]; cohort 3, 0.2 mg/mL) was under 3, the “Number of dogs … (CR)” value ([1]; cohort 3, 0.2 mg/mL, 7 dogs) was 2 and the “Number of dogs with partial response (PR)” value ([1]; cohort 3, 0.2 mg/mL, 7 dogs) was 1. The “Mitotic nuclei in post-surgical biopsy material of residual tumor” value ([1]; dog GCV-107, cohort 1) was “no mitotic nuclei identified”, the “Total tumor volume reduction (modified ellipsoidal calculation)” value ([1]; dog GCV-107, cohort 1, Day 21) was 36% and the “Unidirectional tumor measurement (length) decrease” value ([1]; dog GCV-107, cohort 1, by Day 21) was 23%. The “Tumor recurrence at the treatment site during the post treatment examination period” value ([2]; 8 dogs, examined out to 11.9 to 15.0 months post treatment) was “No tumor recurrence”, the “Tumor recurrence at case follow-up post treatment” value ([2]; cohort 1 dogs (1.0 mg/mL), one value per dog and examination, months 1-14 post treatment) was “Nil” and the “Day on which tumor recurrence was reported” value ([2]; dog NVC-110, 42 days after study completion) was 63 days. The RECIST classification [3] was “PR (partial response (PR, at least 30% decrease in the longest diameter of target lesion))”.
